# Source: article PMC8117417, “Novel Trifluoromethyl Pyrimidinone Compounds With Activity Against Mycobacterium tuberculosis” (Frontiers in Chemistry, 2021)
# Tested on: not given
# Test: not given
# Conditions: not given
row,SMILES,melting point [°C]
1,"Cc1c(C(F)(F)F)nc[nH]c1=O [Compound 32, 5-Methyl-6-(Trifluoromethyl)Pyrimidin-4(3H)-One]",183 to 185
2,"O=c1cc(C(F)(F)F)nc(-c2cccnc2)[nH]1 [Compound 20, 2-(Pyridin-3-yl)-6-(Trifluoromethyl)Pyrimidin-4(3H)-One]",276 to 277
3,"Cc1c(-c2ccccc2)nc(-c2ccccn2)[nH]c1=O [Compound 48, 5-Methyl-6-Phenyl-2-(Pyridin-2-yl)Pyrimidin-4(3H)-One]",140 to 141
4,"O=c1cc(C(F)(F)F)nc(-c2ccccc2)[nH]1 [Compound 24, 2-Phenyl-6-(Trifluoromethyl)Pyrimidin-4(3H)-One]",225 to 227
5,"Cc1c(C(F)(F)F)nc(-c2cccnc2)[nH]c1=O [Compound 22, 5-Methyl-2-(Pyridin-3-yl)-6-(Trifluoromethyl)Pyrimidin-4(3H)-One]",213 to 215
6,"Cc1c(C(F)(F)F)nc(-c2ccccc2)[nH]c1=O [Compound 35, 5-Methyl-2-Phenyl-6-(Trifluoromethyl)Pyrimidin-4(3H)-One]",256 to 259
7,"O=c1[nH]c(-c2ccccn2)nc(C(F)(F)F)c1-c1ccccc1 [Compound 54, 5-Phenyl-2-(Pyridin-2-yl)-6-(Trifluoromethyl)Pyrimidin-4(3H)-One]",258 to 259
8,"O=c1cc(C(F)(F)F)nc(-c2ncccn2)[nH]1 [Compound 18, 6-(Trifluoromethyl)-[2,2′-Bipyrimidin]-4(3H)-One]",236 to 238

# Tested on: M. tuberculosis H37Rv
# Test: Minimum inhibitory concentration (IC90) against fluorescent M. tuberculosis in liquid culture
# Conditions: concentration required to inhibit M. tuberculosis growth by 90%; aerobic culture, 5 days, 7H9-OADC-Tw
row,SMILES,MTB IC90
1,"Cc1c(C(F)(F)F)nc[nH]c1=O [Compound 32, 5-Methyl-6-(Trifluoromethyl)Pyrimidin-4(3H)-One]",no antibacterial activity
2,"O=c1cc(C(F)(F)F)nc(-c2ncccn2)[nH]1 [Compound 18, 6-(Trifluoromethyl)-[2,2′-Bipyrimidin]-4(3H)-One]",abolished activity

# Same assay, conditions: read-out: MTB IC90; concentration required to inhibit M. tuberculosis growth by 90%; aerobic culture, 5 days, 7H9-OADC-Tw
row,SMILES,IC90 [µM]
1,"Cc1c(C(F)(F)F)nc[nH]c1=O [Compound 32, 5-Methyl-6-(Trifluoromethyl)Pyrimidin-4(3H)-One]",> 20
2,"O=c1cc(C(F)(F)F)nc(-c2cccnc2)[nH]1 [Compound 20, 2-(Pyridin-3-yl)-6-(Trifluoromethyl)Pyrimidin-4(3H)-One]",> 20
3,"Cc1c(-c2ccccc2)nc(-c2ccccn2)[nH]c1=O [Compound 48, 5-Methyl-6-Phenyl-2-(Pyridin-2-yl)Pyrimidin-4(3H)-One]",9.4 ± 0.67
4,"O=c1cc(C(F)(F)F)nc(-c2ccccc2)[nH]1 [Compound 24, 2-Phenyl-6-(Trifluoromethyl)Pyrimidin-4(3H)-One]",> 20
5,"Cc1c(C(F)(F)F)nc(-c2cccnc2)[nH]c1=O [Compound 22, 5-Methyl-2-(Pyridin-3-yl)-6-(Trifluoromethyl)Pyrimidin-4(3H)-One]",> 20
6,"Cc1c(C(F)(F)F)nc(-c2ccccc2)[nH]c1=O [Compound 35, 5-Methyl-2-Phenyl-6-(Trifluoromethyl)Pyrimidin-4(3H)-One]",> 20
7,"O=c1[nH]c(-c2ccccn2)nc(C(F)(F)F)c1-c1ccccc1 [Compound 54, 5-Phenyl-2-(Pyridin-2-yl)-6-(Trifluoromethyl)Pyrimidin-4(3H)-One]",4.5 ± 0.14
8,"O=c1cc(C(F)(F)F)nc(-c2ncccn2)[nH]1 [Compound 18, 6-(Trifluoromethyl)-[2,2′-Bipyrimidin]-4(3H)-One]",> 20

# Tested on: HepG2 human liver cells
# Test: Cytotoxicity against HepG2 cells (CellTiter-Glo)
# Type: cell-based
# Conditions: Homo sapiens, HepG2, 72 h, concentration required to inhibit growth of HepG2 cells by 50%; 72 h exposure
# Description: Cytotoxicity was measured after 72 h of compound exposure at 37°C and 5% CO2 using CellTiter-Glo (Promega).
row,SMILES,IC50 [µM]
1,"Cc1c(C(F)(F)F)nc[nH]c1=O [Compound 32, 5-Methyl-6-(Trifluoromethyl)Pyrimidin-4(3H)-One]",> 100
2,"O=c1cc(C(F)(F)F)nc(-c2cccnc2)[nH]1 [Compound 20, 2-(Pyridin-3-yl)-6-(Trifluoromethyl)Pyrimidin-4(3H)-One]",> 100
3,"Cc1c(-c2ccccc2)nc(-c2ccccn2)[nH]c1=O [Compound 48, 5-Methyl-6-Phenyl-2-(Pyridin-2-yl)Pyrimidin-4(3H)-One]",9.7 ± 5.5
4,"O=c1cc(C(F)(F)F)nc(-c2ccccc2)[nH]1 [Compound 24, 2-Phenyl-6-(Trifluoromethyl)Pyrimidin-4(3H)-One]",> 100
5,"Cc1c(C(F)(F)F)nc(-c2cccnc2)[nH]c1=O [Compound 22, 5-Methyl-2-(Pyridin-3-yl)-6-(Trifluoromethyl)Pyrimidin-4(3H)-One]",> 100
6,"Cc1c(C(F)(F)F)nc(-c2ccccc2)[nH]c1=O [Compound 35, 5-Methyl-2-Phenyl-6-(Trifluoromethyl)Pyrimidin-4(3H)-One]",> 100
7,"O=c1[nH]c(-c2ccccn2)nc(C(F)(F)F)c1-c1ccccc1 [Compound 54, 5-Phenyl-2-(Pyridin-2-yl)-6-(Trifluoromethyl)Pyrimidin-4(3H)-One]",11
8,"O=c1cc(C(F)(F)F)nc(-c2ncccn2)[nH]1 [Compound 18, 6-(Trifluoromethyl)-[2,2′-Bipyrimidin]-4(3H)-One]",> 100

# Same assay, conditions: concentration required to inhibit growth of HepG2 cells by 50%; 72 h exposure
SMILES,IC50 [µM],HepG2 IC50
"O=c1[nH]c(-c2ccccn2)nc(C(F)(F)F)c1-c1ccccc1 [Compound 54, 5-Phenyl-2-(Pyridin-2-yl)-6-(Trifluoromethyl)Pyrimidin-4(3H)-One]",10 ± 6.4,–
"O=c1cc(C(F)(F)F)nc(-c2ncccn2)[nH]1 [Compound 18, 6-(Trifluoromethyl)-[2,2′-Bipyrimidin]-4(3H)-One]",–,abolished activity and cytotoxicity
